# Values of other authors in patent US7932258B2, “Use of a partially neutralized, anionic (meth) acrylate copolymer as a coating for the production of a medicament pharmaceutical form releasing active substance at reduced pH values” (Evonik Roehm GmbH, priority 2005, dated 2011).
# Conditions: pH 4.0
smiles,measurement,value
CC(=O)Oc1ccccc1C(=O)O [Acetylsalicylic acid],Solubility and stability of the active substance,adequately soluble and stable
